Oligonucleotides are written 5' to 3', each unit as a sugar letter and its base; * is a phosphorothioate linkage, no mark a phosphodiester; rarer units and linkages stand in square brackets, end groups in braces. Plain capitals give the bases only. d = 2'-deoxy (DNA); r = 2'-OH (RNA)
molecular target: NOG; test: reporter assay of Huesken 2005; conditions: siRNA
Also: test concentration or dose not given here.

Substance	normalised inhibition (eCFP-eYFP dual reporter) [%]
sense rArCrGrArCrCrUrGrGrGrCrArGrCrCrGrCrUrUdTdT / antisense rArArGrCrGrGrCrUrGrCrCrCrArGrGrUrCrGrUdTdC	51.1
sense rArCrUrArUrCrUrCrCrArCrArUrCrCrGrCrCrCdTdT / antisense rGrGrGrCrGrGrArUrGrUrGrGrArGrArUrArGrUdGdC	52.8
sense rArGrArGrUrUrCrUrCrCrGrArGrGrGrCrUrUrGdTdT / antisense rCrArArGrCrCrCrUrCrGrGrArGrArArCrUrCrUdAdG	55.1
sense rArGrCrArArGrArArGrCrUrGrCrGrGrArGrGrAdTdT / antisense rUrCrCrUrCrCrGrCrArGrCrUrUrCrUrUrGrCrUdTdA	97.7
sense rArGrGrGrCrArUrGrGrUrGrUrGrCrArArGrCrCdTdT / antisense rGrGrCrUrUrGrCrArCrArCrCrArUrGrCrCrCrUdCdG	75.7
sense rArGrUrArArGrCrGrCrUrCrGrUrGrCrUrCrCrGdTdT / antisense rCrGrGrArGrCrArCrGrArGrCrGrCrUrUrArCrUdGdA	51
sense rArUrCrCrGrCrCrCrGrGrCrArCrCrCrArGrCrGdTdT / antisense rCrGrCrUrGrGrGrUrGrCrCrGrGrGrCrGrGrArUdGdT	42.7
sense rArUrCrUrCrCrArCrArUrCrCrGrCrCrCrGrGrCdTdT / antisense rGrCrCrGrGrGrCrGrGrArUrGrUrGrGrArGrArUdAdG	60.2
sense rArUrGrGrUrGrUrGrCrArArGrCrCrGrUrCrCrAdTdT / antisense rUrGrGrArCrGrGrCrUrUrGrCrArCrArCrCrArUdGdC	86.2
sense rArUrUrCrUrGrCrCrCrCrGrUrGrCrUrGrUrArCdTdT / antisense rGrUrArCrArGrCrArCrGrGrGrGrCrArGrArArUdGdT	51
sense rCrArArGrGrArArArArGrGrArUrCrUrGrArArCdTdT / antisense rGrUrUrCrArGrArUrCrCrUrUrUrUrCrCrUrUrGdGdG	95.1
sense rCrArCrCrUrCrArCrGrGrUrGrCrUrGrCrGrGrUdTdT / antisense rArCrCrGrCrArGrCrArCrCrGrUrGrArGrGrUrGdCdA	56.3
sense rCrArGrArCrCrCrUrArUrCrUrUrUrGrArCrCrCdTdT / antisense rGrGrGrUrCrArArArGrArUrArGrGrGrUrCrUrGdGdG	88.8
sense rCrArGrCrGrCrCrUrArArGrCrArArGrArArGrCdTdT / antisense rGrCrUrUrCrUrUrGrCrUrUrArGrGrCrGrCrUrGdCdT	62.6
sense rCrArGrCrUrGrCrUrUrCrArGrUrArArGrCrGrCdTdT / antisense rGrCrGrCrUrUrArCrUrGrArArGrCrArGrCrUrGdCdC	56.5
sense rCrCrArCrArUrCrCrGrCrCrCrGrGrCrArCrCrCdTdT / antisense rGrGrGrUrGrCrCrGrGrGrCrGrGrArUrGrUrGrGdAdG	51.4
sense rCrCrArGrCrUrGrCrUrGrCrGrGrCrArGrCrGrGdTdT / antisense rCrCrGrCrUrGrCrCrGrCrArGrCrArGrCrUrGrGdTdC	78.3
sense rCrCrCrArGrCrGrArCrArArCrCrUrGrCrCrCrCdTdT / antisense rGrGrGrGrCrArGrGrUrUrGrUrCrGrCrUrGrGrGdTdG	68.1
sense rCrCrCrGrUrGrCrUrGrUrArCrGrCrGrUrGrGrAdTdT / antisense rUrCrCrArCrGrCrGrUrArCrArGrCrArCrGrGrGdGdC	60.3

Substance	normalised inhibition (eCFP-eYFP dual reporter) [%]
sense rCrCrUrArUrCrUrUrUrGrArCrCrCrCrArArGrGdTdT / antisense rCrCrUrUrGrGrGrGrUrCrArArArGrArUrArGrGdGdT	89.1
sense rCrCrUrCrArCrGrGrUrGrCrUrGrCrGrGrUrGrGdTdT / antisense rCrCrArCrCrGrCrArGrCrArCrCrGrUrGrArGrGdTdG	70.1
sense rCrCrUrCrArUrCrGrArArCrArCrCrCrArGrArCdTdT / antisense rGrUrCrUrGrGrGrUrGrUrUrCrGrArUrGrArGrGdTdC	79.3
sense rCrCrUrGrGrUrGrGrArCrCrUrCrArUrCrGrArAdTdT / antisense rUrUrCrGrArUrGrArGrGrUrCrCrArCrCrArGrGdGdG	81.7
sense rCrGrCrArGrArCrArUrUrCrUrGrCrCrCrCrGrUdTdT / antisense rArCrGrGrGrGrCrArGrArArUrGrUrCrUrGrCrGdAdC	53
sense rCrGrCrUrGrCrUrGrCrGrCrUrCrGrCrUrGrCrUdTdT / antisense rArGrCrArGrCrGrArGrCrGrCrArGrCrArGrCrGdTdC	73.4
sense rCrUrGrArArCrGrArGrArCrGrCrUrGrCrUrGrCdTdT / antisense rGrCrArGrCrArGrCrGrUrCrUrCrGrUrUrCrArGdAdT	46.9
sense rCrUrGrGrCrGrGrArGrCrUrGrGrArCrCrArGrCdTdT / antisense rGrCrUrGrGrUrCrCrArGrCrUrCrCrGrCrCrArGdGdT	58.7
sense rGrArArCrGrArCrCrUrGrGrGrCrArGrCrCrGrCdTdT / antisense rGrCrGrGrCrUrGrCrCrCrArGrGrUrCrGrUrUrCdCdA	59.1
sense rGrArArCrGrArGrArCrGrCrUrGrCrUrGrCrGrCdTdT / antisense rGrCrGrCrArGrCrArGrCrGrUrCrUrCrGrUrUrCdAdG	74.1
sense rGrArArGrCrArGrCrGrCrCrUrArArGrCrArArGdTdT / antisense rCrUrUrGrCrUrUrArGrGrCrGrCrUrGrCrUrUrCdTdT	83
sense rGrArArGrCrUrGrCrGrGrArGrGrArArGrUrUrAdTdT / antisense rUrArArCrUrUrCrCrUrCrCrGrCrArGrCrUrUrCdTdT	102
sense rGrArCrCrArGrCrUrGrCrUrGrCrGrGrCrArGrCdTdT / antisense rGrCrUrGrCrCrGrCrArGrCrArGrCrUrGrGrUrCdCdA	55.2
sense rGrArCrCrCrArGrGrCrUrUrCrArUrGrGrCrCrAdTdT / antisense rUrGrGrCrCrArUrGrArArGrCrCrUrGrGrGrUrCdGdT	82.6
sense rGrArCrCrUrGrGrGrCrArGrCrCrGrCrUrUrUrUdTdT / antisense rArArArArGrCrGrGrCrUrGrCrCrCrArGrGrUrCdGdT	77.1
sense rGrArCrGrCrUrGrCrUrGrCrGrCrUrCrGrCrUrGdTdT / antisense rCrArGrCrGrArGrCrGrCrArGrCrArGrCrGrUrCdTdC	70.9
sense rGrArGrCrUrGrGrArCrCrArGrCrUrGrCrUrGrCdTdT / antisense rGrCrArGrCrArGrCrUrGrGrUrCrCrArGrCrUrCdCdG	71.8
sense rGrArUrCrArArArGrGrGrCrUrArGrArGrUrUrCdTdT / antisense rGrArArCrUrCrUrArGrCrCrCrUrUrUrGrArUrCdTdC	78.3

— the OligoGym collection
